From article PMC11783601, “Analogue-Sensitive Inhibition of Histone Demethylases Uncovers Member-Specific Function in Ribosomal Protein Synthesis” (Journal of the American Chemical Society, 2025) come the findings set out here.

The subject of one series is HEK293T cells. In words: Cell permeability and hydrolysis to 6, LC-HRMS of cell extracts. Type of series: in vitro ADME, human. Conditions: 200 µM, 24 hours, LC-HRMS total ion counts. From the text:
We next examined the orthogonal pairs for their ability to modulate lysine demethylation on the chromosomal histone in cultured human cells (Figure 4A). To this end, we generated the F185A mutation in full-length KDM4A carrying all of the functional domains. Furthermore, to enhance cell permeability, we synthesized two chemoselective ester prodrugs 6A and 6B carrying either an n-octyl or a trifluoromethyl benzyl ester as the lipophilic moiety, respectively (Figures 4A, S5, and S6, Scheme S3).[46],[47] We confirmed the cell permeability of 6A and 6B and their subsequent hydrolysis to 6 by analyzing extracts of compound-treated HEK293T cells using LC-HRMS. […]
12. Examining cell permeability and toxicity of 6A and 6B
In a T-25 cell culture flask, HEK293T cells were treated with either 200 µM L-Leu octyl-ester NOG 6A, L-Leu TFMB-ester NOG 6B, or corresponding volume of DMSO. Following 24 hours of incubation at 37 °C, media was removed and 3mL of 80:20 methanol: water was added while the flasks with cells were on dry ice. The flasks were then incubated in -80 °C for 10 minutes to allow cell lysis. […] Relative de-esterification was determined by subtracting abundance of each treatment sample by the DMSO control and indicated molecular weights followed by dividing the abundance of L-Leu NOG molecular weight by the total abundance of esterified and de-esterified L-Leu 6 for each sample. […]

Series [1] has as its system nascent protein synthesis in HEK293T cells. Briefly: BONCAT: confocal imaging of TAMRA alkyne ligated nascent proteins in fixed cells. Type of series: cell-based, human. The procedure:
To visualize the nascent proteins in intact cells, we performed click ligation on fixed cells with TAMRA alkyne, followed by confocal imaging. Treatment with AHA led to a robust fluorescence signal primarily in the cytoplasm compared to untreated cells indicating cytoplasmic protein synthesis (Figure 5D,E). […]
and 6 ug of Thermo Turbofect (FERR0531). KDM4A siRNA was transfected into cells using 10nM siRNA (Thermo 4392420) with 1:2 ug amount of Thermo Turbofect (FERR0531). Cells were washed 4 hours later and fresh DMEM was applied. The next day, the cells were treated with inhibitor (L-leucine NOG) and grown for 24 hours. […] The lysate was quantified with Bradford dye and 40 ug of lysate was incubated with 1 mM Tris[(1-benzyl-1H-1,2,3-triazol-4-yl)methyl]amine (TBTA […]
For analysis of AHA incorporation measured by fixed cell imaging, HEK293-T cells (ATCC CRL-1573) were grown in a 24 well plate (Corning) on poly-D-lysine (Gibco A3890401) treated glass coverslips (ThermoScientific 12-545-81P) overnight and transfected the next day with 500 ng KDM4A WT/F185A or Empty Vector (EV) equivalent using 1:2 ug of Thermo Turbofect (FERR0531). […]
(Sigma B2883-25MG) for 30 seconds, washed with PBS and finally adhered to a slide with gelvatol. […] Images were analyzed on ImageJ open-source software and NIS elements software. […]

As to `CCCCCCCCOC(=O)C(=O)NC(CC(C)C)C(=O)O` [6A, L-Leu octyl-ester NOG], the “membrane permeability and hydrolysis to 6” value with HEK293T cells is “comparable membrane permeability”. For the same compound, the “TAMRA signal of nascent proteins (confocal imaging)” value in series [1] (fixed HEK293T cells overexpressing F185A, to the level of cells expressing control vector) is on record as “subsequently inhibited”.

In the case of `CC(C)CC(NC(=O)C(=O)OCc1cccc(C(F)(F)F)c1)C(=O)O` [6B, L-Leu TFMB-ester NOG], in the series with HEK293T cells, the “membrane permeability and hydrolysis to 6” value is listed as “comparable membrane permeability”.

`CCCCCCCCOC(=O)c1ccc(O)c2ncccc12` [n-octyl IOX1]: the “TAMRA signal of nascent proteins (confocal imaging)” value in series [1] (fixed HEK293T cells, endogenous KDM4A, compared with KDM4A silencing) is “phenocopied”.
